{"source": "patent US20200138056A1", "about": "“ANIMAL FEED SUPPLEMENT” (MOOTRAL SA, priority 2017, published 2020)", "key": {"[1]": {"tested_on": "ruminal fluid", "assay": "in vitro Hohenheim gas test (HGT), methane concentration in fermentation gas", "format": "cell-based, sheep", "details": "98.8 μg/ml; for Average Reduction (%) / Percentage of Control (First Run) / Percentage of Control (Second Run): methane; for Average Reduction (%): average of two runs", "protocol": "(§1) The in vitro Hohenheim gas test (HGT) including the preparation of all buffers and reagents was carried out according to the protocol of Menke and Steingass (1988), “Menke K. H., Steingass H., Estimation of the energetic feed value obtained from chemical analysis and gas production using rumen fluid, Anim. Res. Dev. 28, 7-55”, the contents of which are incorporated herein by reference.\nBriefly, ruminal fluid was strained through four layers of gauze (1 mm pore size, type 17 MedPro, Novamed AG, Flawil, Switzerland), before being mixed with preheated, reduced Menke buffer (Menke and Steingass, 1988). The ruminal fluid/buffer mixture was then dispensed into pre-warmed incubation units containing the respective test additives. Each airtight syringe unit contained 25 ml of a ruminal fluid/buffer mixture (1:3; v/v), 300 mg dried and ground total mixed ration (TMR) and […] of the test substrate prepared to give a desired concentration ml^−1. Each test substrate and controls were tested in six replicates, with each run including a substrate control (rumen fluid plus 300 mg dried and ground substrate of the total mixed ration (TMR) fed to the fistulated sheep from which the ruminal fluid was obtained). Each substrate was also tested on different days to allow for variability in the microbial community. This mixture was incubated for 8 hours at a constant temperature of 39° C. After 8 hours, total gas and liquid volumes were recorded from the calibrated scale printed on the incubation units and fermentation was terminated by decanting only the incubation liquid from the incubation units while fermentation gas was left inside. Then […] of gas was drawn from the incubation units with a Hamilton syringe (Hamilton, AG, Bonaduz, Switzerland) through a gas-tight septum covering the second outlet of the modified units. The main constituents of the flavonoid mix were naringin and neohesperidin at a ratio of 2.10:0.92. Monensin, a polyether antibiotic isolated from Streptomyces cinnamonensis, was used as a positive control.\nFermentation gas was analysed on a Hewlett Packard gas chromatograph (model 5890 Series II, Avondale, Pa., USA) for methane concentration. For the analysis of the volatile fatty acids (VFA), samples were prepared according to the method of Doane et al. (1998) and determined by HPLC (LaChrom, L-7000 series, Hitachi Ltd., Tokyo, Japan) following the protocol of Ehrlich et al. (1981). Reduction in methane emission results in accumulation of H2, which leads to the decreases of acetate:propionate ratio and acetate:butyrate ratio. This decreased ratio indicates an increase in propionate and butyrate (as formation of propionate and butyrate uses up the H2). The increase in propionate would then result in an increase of meat productivity in ruminants, while the increase in butyrate results in an increase of milk productivity in ruminants.\nThe in vitro Hohenheim gas test (HGT) was used to measure average reduction in methane using a composition comprising allicin and a green tea extract and a composition comprising allicin and a pomegranate extract. The green tea and pomegranate extracts were purchased from Ethical Natural Inc. (USA).\nA composition comprising allicin and the flavonoid mix used in Example 1 was also tested. Monensin, a polyether antibiotic isolated from Streptomyces cinnamonensis, was used as a positive control."}, "[2]": {"tested_on": "ruminal fluid", "assay": "in vitro Hohenheim gas test (HGT), volatile fatty acids (VFA) by HPLC", "format": "cell-based, sheep", "details": "Table 2; 98.8 μg/ml", "protocol": "as §1\nBriefly, ruminal fluid was strained through four layers of gauze (1 mm pore size, type 17 MedPro, Novamed AG, Flawil, Switzerland), before being mixed with preheated, reduced Menke buffer (Menke and Steingass, 1988). The ruminal fluid/buffer mixture was then dispensed into pre-warmed incubation units containing the respective test additives. […] After 8 hours, total gas and liquid volumes were recorded from the calibrated scale printed on the incubation units and fermentation was terminated by decanting only the incubation liquid from the incubation units while fermentation gas was left inside. […]\nFermentation gas was analysed on a Hewlett Packard gas chromatograph (model 5890 Series II, Avondale, Pa., USA) for methane concentration. For the analysis of the volatile fatty acids (VFA), samples were prepared according to the method of Doane et al. (1998) and determined by HPLC (LaChrom, L-7000 series, Hitachi Ltd., Tokyo, Japan) following the protocol of Ehrlich et al. (1981). […]"}}}
{"smiles": "CC[C@@]1([C@@H]2O[C@@H]([C@H]3O[C@@](O)(CO)[C@H](C)C[C@@H]3C)C[C@@H]2C)CC[C@H]([C@]2(C)CC[C@]3(C[C@H](O)[C@@H](C)[C@@H]([C@@H](C)[C@@H](OC)[C@H](C)C(=O)O)O3)O2)O1", "note": "[Monensin]", "values": [{"measurement": "Average Methane Concentration (%) (First Run)", "setting": "[1]; Table 1, 8 h, 39° C.", "value": 8.89, "unit": "%"}, {"measurement": "Average Methane Concentration (%) (Second Run)", "setting": "[1]; Table 1, 8 h, 39° C.", "value": 9.71, "unit": "%"}, {"measurement": "Average Reduction (%)", "setting": "[1]; Table 1", "value": 27, "unit": "%"}, {"measurement": "Percentage of Control (First Run)", "setting": "[1]; Table 1", "value": 73, "unit": "%"}, {"measurement": "Percentage of Control (Second Run)", "setting": "[1]; Table 1", "value": 74, "unit": "%"}, {"measurement": "Average Methane Concentration (%) (First Run)", "setting": "[1]; Table 3", "value": 8.2, "unit": "%"}, {"measurement": "Average Methane Concentration (%) (Second Run)", "setting": "[1]; Table 3", "value": 9.9, "unit": "%"}, {"measurement": "Average Reduction (%)", "setting": "[1]; Table 3", "value": 27, "unit": "%"}, {"measurement": "Percentage of Control (First Run)", "setting": "[1]; Table 3", "value": 66, "unit": "%"}, {"measurement": "Percentage of Control (Second Run)", "setting": "[1]; Table 3", "value": 80, "unit": "%"}, {"measurement": "Average Methane Concentration (%) (First Run)", "setting": "[1]; Table 4", "value": 8.1, "unit": "%"}, {"measurement": "Average Methane Concentration (%) (Second Run)", "setting": "[1]; Table 4", "value": 7.1, "unit": "%"}, {"measurement": "Average Reduction (%)", "setting": "[1]; Table 4", "value": 33, "unit": "%"}, {"measurement": "Percentage of Control (First Run)", "setting": "[1]; Table 4", "value": 67, "unit": "%"}, {"measurement": "Percentage of Control (Second Run)", "setting": "[1]; Table 4", "value": 66, "unit": "%"}, {"measurement": "Butyrate Percentage of Control (%)", "setting": "[2]", "value": 73, "unit": "%"}, {"measurement": "Propionate Percentage of Control (%)", "setting": "[2]", "value": 116, "unit": "%"}]}
